Measured values from the supplement of paper PMC5908809.

Key:
[1] = test system: normal primary NK cells, pool 3 (3 donors) (IL-2 2.5 ng/mL); test: percent inhibition of viability; higher = more inhibition; details: 72 h
[2] = test system: NK-92 (IL-2 2.5 ng/mL); test: as above; details: 72 h
[3] = test system: SNK-6 (IL-2 2.5 ng/mL); test: as above; details: 72 h
[4] = test system: normal primary NK cells, pool 1 (3 donors), resting (IL-2 0 ng/mL); test: as above; details: 72 h
[5] = test system: YT (IL-2 2.5 ng/mL); test: as above; details: 72 h
[6] = test system: normal primary NK cells, pool 2 (3 donors) (IL-2 2.5 ng/mL); test: as above; details: 72 h
[7] = test system: normal primary NK cells, pool 1 (3 donors) (IL-2 2.5 ng/mL); test: as above; details: 72 h
[8] = test system: DERL-7 (IL-2 2.5 ng/mL); test: as above; details: 72 h
[9] = test system: IMC-1 (IL-2 20 ng/mL); test: as above; details: 72 h
[10] = test system: NKL (IL-2 2.5 ng/mL); test: as above; details: 72 h
[11] = test system: NK-YS (IL-2 2.5 ng/mL); test: as above; details: 72 h
[12] = test system: KAI3 (IL-2 2.5 ng/mL); test: as above; details: 72 h
[13] = test system: KHYG-1 (IL-2 2.5 ng/mL); test: as above; details: 72 h
[14] = test system: normal NK cells expanded with K562-aAPC; test: drug sensitivity score (DSS) (DSS units); higher = more sensitive; extreme values may be limits of the assay; details: 72 h; IL-2 2.5 ng/mL
Experimental: (§1)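 Drug sensitivity and resistance testing on K562-aAPC-expanded normal NK cells: 5 concentrations (10-fold steps over a 10,000-fold range), 72 h at 37 °C, viability by CellTiter-Glo normalised to DMSO and benzethonium chloride controls; DSS from the fitted curve.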

[15] = test system: normal NK cells expanded with K562-aAPC; test: percent inhibition of viability; higher = more inhibition; details: 72 h, IL-2 2.5 ng/mL
Experimental: as §1

[16] = test system: normal primary NK cells, pool 3 (3 donors) (IL-2 2.5 ng/mL); test: drug sensitivity score (DSS) (DSS units); higher = more sensitive; extreme values may be limits of the assay; details: 72 h
[17] = test system: NK-92 (IL-2 2.5 ng/mL); test: as above; details: 72 h
[18] = test system: SNK-6 (IL-2 2.5 ng/mL); test: as above; details: 72 h
[19] = test system: normal primary NK cells, pool 1 (3 donors), resting (IL-2 0 ng/mL); test: as above; details: 72 h
[20] = test system: YT (IL-2 2.5 ng/mL); test: as above; details: 72 h
[21] = test system: normal primary NK cells, pool 2 (3 donors) (IL-2 2.5 ng/mL); test: as above; details: 72 h
[22] = test system: normal primary NK cells, pool 1 (3 donors) (IL-2 2.5 ng/mL); test: as above; details: 72 h
[23] = test system: DERL-7 (IL-2 2.5 ng/mL); test: as above; details: 72 h
[24] = test system: IMC-1 (IL-2 20 ng/mL); test: as above; details: 72 h
[25] = test system: NKL (IL-2 2.5 ng/mL); test: as above; details: 72 h
[26] = test system: NK-YS (IL-2 2.5 ng/mL); test: as above; details: 72 h
[27] = test system: KAI3 (IL-2 2.5 ng/mL); test: as above; details: 72 h
[28] = test system: KHYG-1 (IL-2 2.5 ng/mL); test: as above; details: 72 h

O=C(O)CCCCC(CCSCc1ccccc1)SCc1ccccc1 (centres undefined) [CPI-613] (max concentration tested 10000 nM)
percent inhibition of viability [%]
Details | 1 nM | 10 nM | 100 nM | 1000 nM | 10000 nM
[1] | -7.27 | -0.78 | 1.21 | 3.31 | 2.34
[2] | -12.9 | -8.45 | -13 | 17.1 | 13.7
[3] | 2.68 | 9.26 | 7.02 | 3.27 | 15.4
[4] | -1.85 | 9.03 | 13.2 | 15.7 | 14.9
[5] | -4.82 | -6.21 | -4.86 | 4.79 | 13.6
[6] | -4.63 | 4.64 | 5.89 | 2.06 | 9.6
[7] | -0.75 | 13.6 | 2.91 | 3.14 | 0.88
[8] | 0.05 | -0.43 | -0.74 | -7.69 | 0.16
[9] | -2.98 | -1.62 | -2.71 | -2.84 | 9.03
[10] | -9.11 | -4.72 | -5.85 | 9.97 | -1.95
[11] | -0.06 | -3.64 | -3.63 | 4.79 | 12.5
[12] | 2.88 | -5.51 | 1.38 | 3.07 | 13.6
[13] | -0.71 | -6.53 | -1.09 | 2.22 | 14.3
[15] | -7.1 | -6.01 | -4.94 | -0.06 | 8.33

Details | drug sensitivity score
[14] | 0
[16] | 0
[17] | 1.68
[18] | 0.07
[19] | 3.6
[20] | 0.45
[21] | 0
[22] | 0
[23] | 0
[24] | 0
[25] | 0
[26] | 0.31
[27] | 0.36
[28] | 0.38
